Source: patent publication US20180200233A1, “COMPOSITIONS FOR PREVENTING CANCERS ASSOCIATED WITH HUMAN PAPILLOMA VIRUSES” (Loma Linda University, priority 2015, published 2018)

What was measured:
[1] = tested on: UPCI-SCC90-UP-Clone 35 (#90) cells; test: MTT cell viability, HPV+ HNSCC cell line #90 with doxorubicin; type: cell-based; details: 2 μM doxorubicin
Description: FIGS. 8A-B includes graphs showing myricetin and spinacine (5) re-sensitized HPV^+, but not HPV^−, HNSCC cell lines to treatment with doxorubicin. One HPV^− (FIG. 8A; #84) and one HPV^+ (FIG. 8B; #90) head and neck cancer cell line (2×10^4 cells per well) were seeded into 96-well plates and allowed to incubate overnight, then cells were pre-treated with myricetin or spinacine (0-12.5 μM) for 4 h. 2 μM of doxorubicin was added and cells were allowed to incubate overnight. Cell viability was measured by MTT assay, and the viability of cells untreated with small molecules was set at 100%. Experiments were performed in triplicate, and error bars indicate the standard deviation.
The results described above indicate that myricetin and spinacine sensitize HPV^+ HNSCC cells to TRAIL-induced apoptosis. To determine whether this sensitization also occurs in the context of chemotherapeutic agents, several HNSCC cell lines were tested for their responses to combination treatments.
(§1) The extracellular domain of human TRAIL was cloned into a pTriEx expression plasmid containing N-terminal Hisx6 tag. His-TRAIL was expressed in the E. coli BL-21 pLys strain and purified as previously described. […] All experiments were repeated at least three times (three biological replicates, carried out on different days), with each experimental group measured in triplicate within each of these individual experiments. […]

GST-E6/His-caspase 8 = target: T1, GST-E6/His-caspase 8 (Human papillomavirus type 16, UniProt P03126); details: Yuan et al. 2012; cited from earlier work
T1 construct: made in house

C33A cells = test: MTT cell viability, HPV- C33A cells with TRAIL; type: cell-based, human; details: 100 μM myricetin or 50 μM spinacine for 4 h
Description: FIGS. 5A-B are graphs showing myricetin and spinacine (5) re-sensitized HPV^+, but not HPV^−, cells to treatment with TRAIL. SiHa (2×10^4 cells per well) and C33A cells (1×10^4 cells per well) were seeded into a 96-well plate and allowed to incubate overnight, then cells were pre-treated in the presence or absence of myricetin (100 μM) (FIG. 5A) or spinacine (50 μM) (FIG. 5B) for 4 h. The indicated concentration of TRAIL, along with cycloheximide (5 μg/ml) was added and cells were allowed to incubate overnight. Cell viability was measured by MTT assay, and the viability of cells untreated with TRAIL was set at 100%. Experiments were performed in triplicate, and error bars indicate the standard deviation.
as §1, with “described. Doxorubicin and cisplatin were purchased from Sigma. His-TRAIL, doxorubicin, and cisplatin were diluted in PBS to the desired concentration before using.” for “described.”

T1 sequence (P03126 whole entry): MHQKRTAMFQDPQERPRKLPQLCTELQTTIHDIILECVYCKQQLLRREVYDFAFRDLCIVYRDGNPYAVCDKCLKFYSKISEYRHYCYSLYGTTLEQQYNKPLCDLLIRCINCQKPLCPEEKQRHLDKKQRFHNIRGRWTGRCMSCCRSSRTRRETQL

Row | Compound | cell death of HPV+ #90 cells with doxorubicin plus small molecule (in words) ([1]; small molecules 0-12.5 μM) | sensitization of #90 to doxorubicin ([1]; concentration of 12.5 μM) | inhibition of the E6/caspase 8 interaction in vitro (in words) (GST-E6/His-caspase 8) | response of C33A cells to TRAIL-mediated apoptosis after pre-treatment (in words) (C33A cells)
1 | O=C(O)C1Cc2[nH]cnc2CN1 (stereo not shown) [Compound 5, 4,5,6,7-Tetrahydro-1H-imidazo(4,5-c)pyridine-6-carboxylic acid] | higher efficiency than did myricetin | up to 50% | – | –
2 | O=c1c(O)c(-c2cc(O)c(O)c(O)c2)oc2cc(O)cc(O)c12 [Myricetin, reference compound] | – | – | can inhibit the E6/caspase 8 interaction in vitro | remained resistant
